This note sets out measurements from US20260242359A1, “IRHOM2 INHIBITORS AND USES THEREOF” (NEW YORK SOCIETY FOR THE RELIEF OF THE RUPTURED AND …, priority 2023, published 2026).

The test concerns LPS-induced release of endogenous TNFα from human peripheral blood mononuclear cells (PBMCs). Kind of test: Example 13: ELISA-based TNFα release assay, LPS-induced, PBMCs from healthy donor. The format is cell-based. The note with it: 10 μM final concentration, LPS 50 ng/ml, delta Buffer stimulated vs unstimulated = 100% inhibition; for inhibition at 10 µM: Homo sapiens, PBMC. As to the method: In the following study, ELISA-based TNFα release assay was performed to verify the inhibitory effects of Compounds 1, 2, 3, 4, 5, and 7 on LPS-induced release of endogenous TNFα from primary human material obtained from healthy donor using peripheral blood mononuclear cells (PBMCs). The ELISA-based TNFα release assay that was used in this example is described below.
In brief, on day 1, Nunc black MaxiSorp® 96-well plates (Thermo Fisher Scientific, USA) were coated overnight with 100 μl per well of mouse anti-human TNFα capture antibody (provided as part of the DuoSet ELISA kit) at 4 μg/ml TBS at 4° C. On day 2, the capture antibody solution was removed and MaxiSorp® plates were blocked with 300 μl per well of TBS, 1% BSA at room temperature for 3 hours. Meanwhile, 20,000 PBMCs from healthy donor (SciRhom GmbH, Germany) in 80 μl of normal growth medium were seeded in each well of Greiner CELLSTAR V-bottom 96-well plates (Thermo Fisher Scientific, USA) and pre-incubated with 20 μl per well of standard growth medium supplemented with Batimastat (BB94, Abcam, UK) at 50 μM as positive control (for a final concentration of 10 μM in the resulting 100 μl sample volume), compounds of the invention at 50 μM (for a final concentration of 10 μM in the resulting 100 μl sample volume) and in case of Buffer stimulated and unstimulated controls with DMSO (Carl Roth, Germany) at 50 μM (for a final concentration of 10 μM in the resulting 100 μl sample volume) at 37° C., 5% CO2 for 30 minutes. Subsequently, cells (except those for unstimulated controls) were stimulated with 20 μl per well of LPS (Sigma-Aldrich, USA) at 300 ng/ml growth medium for a final concentration of 50 ng/ml at 37° C., 5% CO2 for 2 hours. Afterwards, the 96-well plates were centrifuged to pellet cells. In parallel, blocking buffer was removed from the MaxiSorp® plates and plates were washed 4 times with 350 μl per well of TBS-T (Carl Roth, Germany) on a 96-head plate washer (Tecan Group, Switzerland). To avoid drying-up, 30 μl of TBS were added to each well of the MaxiSorp® plates immediately, followed by the transfer of 70 μl of cell-free supernatant per sample. Additionally, 100 μl of recombinant human TNFα protein (provided as part of the DuoSet ELISA kit) diluted in TBS at defined concentrations were added to the plate as standard references. Thereafter, 100 μl per well of biotinylated goat anti-human TNFα detection antibody (provided as part of the DuoSet ELISA kit) at 50 ng/ml TBS were added and, protected from direct light, plates were incubated at room temperature for 2 hours. After 4 times washing with 350 μl per well of TBS-T (Carl Roth, Germany) on a 96-head plate washer (Tecan Group, Switzerland) and careful removal of all buffer traces after the fourth cycle, 100 μl of streptavidin-AP (R&D Systems, USA) diluted 1:10,000 in TBS were added to each well and, again protected from direct light, plates were incubated at room temperature for 30 minutes. Following another round of 4 times washing with 350 μl per well of TBS-T (Carl Roth, Germany) on a 96-head plate washer (Tecan Group, Switzerland) and careful removal of all buffer traces after the fourth cycle, 100 μl of AttoPhos substrate solution (Promega, USA) was added for incubation in the dark at room temperature for 1 hour. Using an infinite M1000 PRO (Tecan Group, Switzerland) microplate reader, the fluorescence of each well was collected at an excitation wavelength of 435 nm and an emission wavelength of 555 nm.
The delta between Buffer stimulated and Buffer unstimulated was defined 100% inhibition.

Turning to `CNC(=O)[C@H](Cc1ccccc1)NC(=O)[C@H](CC(C)C)[C@H](CSc1cccs1)C(=O)NO` [Batimastat, reference compound], for the setting “2 hours”, the “inhibition of LPS-induced release of TNFα from human PBMCs” value is on record as 114.9%. At 10 µM the inhibition (2 h) was 99.5%.

The molecule `CCC(=O)NCCc1c(/C=C2/C(=O)NC(=O)N(c3ccc(C)cc3C)C2=O)[nH]c2ccccc12` [Compound 1] showed an inhibition at 10 µM (2 hours) of 99.5%.

Regarding `CCOC(=O)c1ccc(Nc2nc3nonc3n3nnnc23)cc1` [Compound 2], the inhibition at 10 µM (2 h) is 98.6%.

For the molecule `O=C(c1c(Cl)cccc1Cl)N1CCC(Cc2ccc(F)cc2)CC1` [Compound 3], for the setting “2 h”, at 10 µM the inhibition was 76.3%.

In the case of `Cc1c(C(=O)NCc2cccs2)sc(=O)n1Cc1ccccc1` [Compound 4], at 10 µM the inhibition (2 h) was 42%.

For the setting “2 h”, `Cc1c(C(=O)NCc2cccs2)sc(=O)n1Cc1ccccc1F` [Compound 5] came in with an inhibition at 10 µM of 51.3%.

Consider `Cc1c(C(=O)NCc2ccco2)sc(=O)n1Cc1ccccc1F` [Compound 7], for which 10 µM produced 72.5% inhibition (2 h).
